# Where two headings read alike, the source gives them in different places.
# Columns and labels:
# [1] = system: P493-6 Myc OFF cells; assay: Cell viability, CELL TITER GLO, P493-6 Myc OFF; type: cell-based, human
# Description: (§1) FIGS. 3A to 3B show exemplary results of an assay of cell viability and the selectivity of Compound 1 for cells expressing Myc and non-Myc expressing cells. Compound 1 affected cell viability after treatment with Compound 1 for 3 days, as measured using CELL TITER GLO (Promega) in a cancer cell line (P493-6, derived from human B-cells), where Myc is ON (FIG. 3A) or Myc is OFF (FIG. 3B). Results were expressed as a mean+/−SEM (n=3). RLU: Relative Luminescence Units.
# (§2) The selectivity of Compound 1 for cells expressing Myc over non-Myc expressing cells in cancer cell line P493-6 (engineered cell line derived from human B-cells) was determined. Adding doxycycline to P493-6 growth media shuts off Myc transcription. Exemplary results are shown in FIGS. 3A to 3B, where cell viability was assessed by CELL TITER GLO assay (Promega). FIG. 3A depicts the assay results for cells expressing Myc, and FIG. 3B depicts the assay results for non-Myc expressing cells. […] The selectivity of other compounds described herein in cancer cell line cancer cell line P493-6 was also determined, and exemplary results are shown in Table 2, where viability was assessed by CELL TITER GLO assay (Promega).
# [2] = system: P493-6 Myc ON cells; assay: Cell viability, CELL TITER GLO, P493-6 Myc ON; type: cell-based, human
# Description: as §1, §2
# [3] = system: c-Myc; assay: c-Myc reporter gene assay (Qiagen), Firefly/Renilla ratio, HEK293T cells; type: cell-based
# Protocol: The activity of Compound 1 against Myc was measured as a Firefly/Renilla ratio, using the Myc reporter assay (Qiagen) in HEK293T cells after treatment with Compound 1 for 16 hours. Results are expressed as a mean+/−SD (n=3). SD: standard deviation.
# Select compounds described herein that were SMM assay positives were evaluated in several versions of a c-Myc reporter gene assay, including a commercial assay from Qiagen. The compounds' activities against c-Myc were measured as a Firefly/Renilla ratio, using the Myc reporter assay (Qiagen) in HEK293T cells after treatment with the compounds for 16 hours.
# [4] = Intrinsic clearance, liver microsomes; type: in vitro ADME; settings: Intrinsic clearance (liver microsomes, human)
# [5] = system: ST486, CA46, NCI-H1963, GBM4 cancer cell lines; assay: Cell viability, CELL TITER GLO, cancer cell lines ST486, CA46, NCI-H1963, GBM4; type: cell-based; settings: 3 days treatment (4 days GBM4)
# Protocol: Compound 1 affected cell viability after treatment with Compound 1 for 3 days (and 4 days for GBM4 and NHA), as measured using CELL TITER GLO (Promega) in 4 different cancer cell lines: ST486 (Burkitt's lymphoma; FIG. 2), CA46 (Burkitt's lymphoma; FIG. 2), NCI-H1963 (small cell lung cancer; FIG. 2), and GBM4 (glioblastoma; FIG. 2). The cell viability of normal human astrocytes (NHA) was also assayed. Results were expressed as a mean+/−SEM (n=2). The effect of Compound 1 on cell viability in several cancer cell lines and normal human astrocytes (NHA) was determined. The cancer cell lines employed in the assay included those corresponding to Burkitt's lymphoma (ST486 and CA46), small cell lung cancer (NCI-H1963), and glioblastoma (GBM4). The cell viability of normal human astrocytes (NHA) was also assayed. Exemplary results are shown in FIG. 2, where viability was assessed by CELL TITER GLO assay (Promega). […] The effects of other compounds described herein on cell viability in several cancer cell lines were also determined, and exemplary results are shown in Table 2, where viability was assessed by CELL TITER GLO assay (Promega).
# [6] = Aqueous solubility at 25° C.; type: physicochemical
# [7] = system: ST-486; assay: Viability assay in ST-486; type: cell-based; settings: Homo sapiens, ST486; ST-486, non-engineered cell line
# [8] = biological target: T1, Max homodimer (Homo sapiens, UniProt P61244); assay: fPLC quantification of Max monomer vs. Max homodimer; type: binding; settings: monomer vs. homodimer populations
# Description: (§3) This leads to a hypothesize that KI-MS2-008 stabilizes the Max homodimer.
# [9] = system: P3HR1; assay: Viability assay in P3HR1; type: cell-based; settings: Homo sapiens, P3HR-1; P3HR1, non-engineered cell line
# [10] = biological target: T1, Max homodimer; assay: EMSA with recombinant Max, homodimer binding to DNA
# Description: as §3
# [11] = system: MYC-driven T-ALL model; assay: MYC-driven T-ALL / lymphoma model, Luc-labeled cells transplanted into NSG mice; type: in vivo
# [12] = system: Myc transcript; assay: qPCR of Myc transcript levels; type: cell-based
# [13] = biological target: c-Myc/Max heterodimer (Homo sapiens, UniProt P61244); assay: Electrophoretic mobility shift assay, c-Myc/Max heterodimer; type: binding
# Description: as §3
# [14] = system: Myc; assay: Myc protein levels; type: cell-based; settings: recovered by proteasome inhibition
# [15] = Table 3, read-out: IC50 Myc OFF
# [16] = Table 3, read-out: IC50 Reporter assay
# [17] = Homo sapiens, HEK-293T, HEK293T cells, 16 hours, Table 2, read-out: c-Myc reporter assay IC50
# [18] = Homo sapiens, HEK-293T, read-out: IC50 value in Myc reporter assay
# T1 sequence (P61244 whole entry): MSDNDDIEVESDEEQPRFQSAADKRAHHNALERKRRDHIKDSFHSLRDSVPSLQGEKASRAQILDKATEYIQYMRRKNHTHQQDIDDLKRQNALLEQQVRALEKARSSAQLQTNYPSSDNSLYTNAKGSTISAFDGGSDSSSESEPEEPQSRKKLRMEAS
# c-Myc/Max heterodimer, sequence (P61244 whole entry, one chain of several): as the sequence (P61244 whole entry) above
smiles,measurement,setting,value
O=C1N(CCS(=O)(=O)c2ccccc2)Cc2ccccc2[C@@H]2OC(c3ccccc3)=N[C@]12Cc1ccccc1 [Compound 3a],IC50,[1]; [15],> 50 µM
same,IC50,"[2]; Table 3, read-out: IC50 Myc ON",11.4 µM
same,IC50,[3]; [16],6.19 µM
O=C1N(CCS(=O)(=O)c2ccccc2)Cc2ccccc2[C@@H]2OC(c3ccc(OCCCO)cc3)=N[C@]12Cc1ccccc1 [Compound 1],half-life,[4],21 min
same,IC50,"[1]; Homo sapiens, P493-6, CELL TITER GLO, Table 2, read-out: P493-6 Myc OFF Viability in cells",58.1 µM
same,Effect on cell viability,[5],demonstrated an effect in cell viability
same,IC50,"[2]; Homo sapiens, P493-6, CELL TITER GLO, Table 2, read-out: P493-6 Myc ON Viability in cells",6.8 µM
same,Selectivity for cells expressing Myc over non-Myc expressing cells,"[2]; P493-6, Myc ON vs. Myc OFF (doxycycline)",demonstrated a selectivity for cells expressing Myc
same,solubility,[6]; Aqueous solubility (simulated gastric fluid),51.2 µM
same,solubility,"[6]; aqueous buffer, Aqueous solubility (PBS, pH 7.4)",9.2 µM
same,solubility,"[6]; fassgf or other biorelevant, Aqueous solubility (simulated intestinal fluid)",200 µM
same,IC50,[3]; [17],1.99 µM
same,IC50,[3]; [18],2.77 µM
O=C1NCc2ccccc2[C@@H]2OC(c3ccccc3)=N[C@H]12 [Compound 1a],IC50,[3]; [16],> 50 µM
C=CCN1Cc2ccccc2[C@@H]2OC(c3ccccc3)=N[C@]2(Cc2ccccc2)C1=O [Compound 4a],IC50,[1]; [15],> 50 µM
same,IC50,"[2]; Table 3, read-out: IC50 Myc ON",31.8 µM
same,IC50,[3]; [16],7.67 µM
"O=C1N(CCS(=O)(=O)c2ccccc2)Cc2ccccc2[C@@H]2OC(c3ccc(OCCCO)cc3)=N[C@]12Cc1ccccc1 (single isomer, unassigned) [15^a]",IC50,[1]; [15],> 50 µM
same,IC50,"[2]; Table 3, listed as 15^b, read-out: IC50 Myc ON",8.49 µM
same,IC50,"[2]; Table 3, listed as 15^c, read-out: IC50 Myc ON",16.6 µM
same,IC50,"[2]; Table 3, read-out: IC50 Myc ON",14.5 µM
same,IC50,"[3]; HEK293T cells, 16 hours, Table 2, read-out: c-Myc reporter assay IC50",4.28 µM
same,IC50,"[3]; Table 3, listed as 15^b, read-out: IC50 Reporter assay",4.74 µM
same,IC50,"[3]; Table 3, listed as 15^c, read-out: IC50 Reporter assay",4.77 µM
same,IC50,[3]; [16],11.7 µM
CCOC(=O)CN1Cc2ccccc2[C@@H]2OC(c3ccccc3)=N[C@]2(Cc2ccccc2)C1=O [Compound 7a],IC50,[1]; [15],> 50 µM
same,IC50,"[2]; Table 3, read-out: IC50 Myc ON",39.3 µM
same,IC50,[3]; [16],3.38 µM
O=C1N(CCS(=O)(=O)c2ccccc2)Cc2ccccc2[C@@H]2OC(c3ccccc3)=N[C@]12Cc1ccccc1 [KI-MS2-008],IC50,[7],18.7 µM
same,Induced dimerization of the Max homodimer,[8],9.9%
same,IC50,[9],51.1 µM
same,Max homodimer binding to DNA (EMSA),[10],dose-dependent increase of Max homodimer binding to DNA
same,Tumor volume,[11],impacts tumor volume
same,Myc transcript levels,[12],decreases Myc transcript levels
same,Disruption of c-Myc/Max heterodimer (EMSA),[13],does not disrupt the c-Myc/Max heterodimer
same,Myc protein levels,[14],decreases Myc protein levels
C#CCNC(=O)CN1Cc2ccccc2[C@@H]2OC(c3ccccc3)=N[C@]2(Cc2ccccc2)C1=O [Compound 11a],IC50,[3]; [16],10.1 µM
O=C1NCc2ccccc2[C@@H]2OC(c3ccccc3)=N[C@]12Cc1ccccc1 [Compound 2a],IC50,[1]; [15],> 50 µM
same,IC50,"[2]; Table 3, read-out: IC50 Myc ON",> 50 µM
same,IC50,[3]; [16],16.8 µM
O=C(O)CN1Cc2ccccc2[C@@H]2OC(c3ccccc3)=N[C@]2(Cc2ccccc2)C1=O [Compound 8a],IC50,[1]; [15],> 50 µM
same,IC50,"[2]; Table 3, read-out: IC50 Myc ON",> 50 µM
same,IC50,[3]; [16],> 50 µM
O=C(CCCCC1SCC2NC(=O)NC21)NCCOCCOCCNC(=O)OCCCOc1ccc(C2=N[C@]3(Cc4ccccc4)C(=O)N(CCS(=O)(=O)c4ccccc4)Cc4ccccc4[C@@H]3O2)cc1 (stereo partly drawn) [Compound 5],IC50,[3]; [17],5.38 µM
same,IC50,[3]; [18],5.4 µM
C#CCN(CC(=O)NCCNC(=O)CN1Cc2ccccc2[C@@H]2OC(c3ccccc3)=N[C@]2(Cc2ccccc2)C1=O)C(=O)CCC1(C)N=N1 [Compound 12a],IC50,[3]; [16],18.7 µM
"COC(=O)[C@@]1(Cc2ccccc2)N=C(c2ccccc2)O[C@H]1c1ccccc1CN=[N+]=[N-] [Compound 6, Methyl (4S,5S)-5-(2-(azidomethyl)phenyl)-4-benzyl-2-phenyl-4,5-dihydrooxazole-4-carboxylate]",IC50,[3]; [17],4.67 µM
O=C1N(CCO)Cc2ccccc2[C@@H]2OC(c3ccccc3)=N[C@]12Cc1ccccc1 [Compound 10a],IC50,[3]; [16],2.15 µM

# From US10865213B2, “Max binders as MYC modulators and uses thereof” (Massachusetts Institute of Technology, priority 2016, dated 2020)
